Assay results taken from patent publication US11484539B2, “Compounds and their uses for alleviating menopause-associated symptoms” (Estetra SPRL, priority 2018, dated 2022).

System: post-menopausal women
Test: Weekly severity of moderate to severe VMS, dose-finding study
Type: in vivo
Source text: To determine the Minimum Effective Dose (MED), firstly the selection criteria required that patients presented at least 7 moderate to severe VMS/day or at least 50 moderate to severe VMS/week in the week preceding randomization. Secondly, a placebo group was included in a double-blind fashion. Thirdly, the total patient number was such that statistical significance could be obtained between separate arms of the study. Fourthly, the absolute change from baseline in weekly frequency of moderate to severe VMS was taken into account. An analysis of covariance (ANCOVA) was performed based on the untransformed change in weekly frequency of moderate to severe VMS from baseline. Finally, the change in severity from baseline was evaluated. For this, the Severity Scoring System of VMS was documented by the subjects as follows: • a score of Mild (1) for a sensation of heat without sweating; • a score of Moderate (2) for a sensation of heat with sweating/the subject is able to continue activity; and • a score of Severe (3) for a sensation of heat with sweating/which causes cessation of activity.
In addition, a severity score of zero was attributed to the patients who have experienced a 100% VMS relief during a given week.
From these score records, the severity at baseline was calculated by taking into account only moderate and severe VMS, such that the total number of moderate VMS during the 7 days of the baseline week was multiplied by 2 and added to the total number of severe VMS during the 7 days of the baseline week multiplied by 3. This total was then divided by the total number of moderate and severe VMS during the baseline week.
The severity at weeks 4 and 12 was calculated using the following formula for each of these weeks: • the number of mild VMS during 7 days multiplied by 1; • the number of moderate VMS during 7 days multiplied by 2; • the number of severe VMS during 7 days multiplied by 3. and adding the 3 resulting numbers together before dividing this total by the total number of mild, moderate and severe VMS during the 7 days of the week.
This method was used to generate the data included in Example 1 further below, under section A. b) “VMS Severity”.
In order to better analyse the data recorded in this study, treatment groups have been compared using an ANCOVA (analysis of covariance) with respect to the change in severity of moderate to severe VMS from baseline to mild, moderate and severe VMS at week 4 and week 12 for each active treatment versus placebo. For women who experienced 100% VMS relief at week 4 and/or week 12, a value of zero was attributed. The ANCOVA model includes treatment (“trt1”) as a fixed effect and baseline (“base”) as a covariate. • b) Covariate significance

With `C[C@]12CC[C@@H]3c4ccc(O)cc4CC[C@H]3[C@@H]1[C@@H](O)[C@@H](O)[C@@H]2O` [E4, 1,3,5 (10)-estratrien-3,15alpha,16alpha,17beta-tetrol] the “Difference with placebo, LS adjusted mean, relative change in weekly severity of moderate to severe VMS” value (5 mg E4 vs placebo, week 12) was 0.1149, the “LS adjusted mean change from baseline in weekly severity of moderate to severe VMS” value (10 mg E4, week 4) was −0.4825 and the “LS adjusted mean relative change from baseline in weekly severity of moderate to severe VMS” value (“LS adjusted mean relative change” for short) (10 mg E4, week 4) was −0.2016. The “LS adjusted mean relative change” value (10 mg E4, week 12) was −0.2862, the “Mean change from baseline in weekly severity of moderate to severe VMS” value (10 mg E4 QD per os, week 1) was −0.2028 and the “Relative change (% from baseline) in weekly severity of moderate to severe VMS, mean” value (shortened to “Relative change (% from baseline)”) (10 mg E4 QD per os, week 1) was −8%. For the same molecule, the “Mean change from baseline in weekly severity of moderate to severe VMS” value (10 mg E4 QD per os, week 2) was −0.3007, the “Relative change (% from baseline)” value (10 mg E4 QD per os, week 2) was −13% and the “Mean change from baseline in weekly severity of moderate to severe VMS” value (10 mg E4 QD per os, week 3) was −0.3983. The “Relative change (% from baseline)” value (10 mg E4 QD per os, week 3) was −17%, the “Mean change from baseline in weekly severity of moderate to severe VMS” value (10 mg E4 QD per os, week 4) was −0.4842 and the “Relative change (% from baseline)” value (10 mg E4 QD per os, week 4) was −20%. The “Mean change from baseline in weekly severity of moderate to severe VMS” value (10 mg E4 QD per os, week 5) was −0.5107, the “Relative change (% from baseline)” value (10 mg E4 QD per os, week 5) was −21% and the “Mean change from baseline in weekly severity of moderate to severe VMS” value (10 mg E4 QD per os, week 6) was −0.6086. For the same molecule, the “Relative change (% from baseline)” value (10 mg E4 QD per os, week 6) was −26%, the “Mean change from baseline in weekly severity of moderate to severe VMS” value (10 mg E4 QD per os, week 7) was −0.643 and the “Relative change (% from baseline)” value (10 mg E4 QD per os, week 7) was −27%. For the same molecule, the “Mean change from baseline in weekly severity of moderate to severe VMS” value (10 mg E4 QD per os, week 8) was −0.6644, the “Relative change (% from baseline)” value (10 mg E4 QD per os, week 8) was −28% and the “Mean change from baseline in weekly severity of moderate to severe VMS” value (10 mg E4 QD per os, week 9) was −0.6864. The “Relative change (% from baseline)” value (10 mg E4 QD per os, week 9) was −28%, the “Mean change from baseline in weekly severity of moderate to severe VMS” value (10 mg E4 QD per os, week 10) was −0.709 and the “Relative change (% from baseline)” value (10 mg E4 QD per os, week 10) was −29%. For the same molecule, the “Mean change from baseline in weekly severity of moderate to severe VMS” value (10 mg E4 QD per os, week 11) was −0.666, the “Relative change (% from baseline)” value (10 mg E4 QD per os, week 11) was −25% and the “Mean change from baseline in weekly severity of moderate to severe VMS” value (10 mg E4 QD per os, week 12) was −0.6941. The “Relative change (% from baseline)” value (10 mg E4 QD per os, week 12) was −28%, the “Difference with placebo, LS adjusted mean, absolute change in weekly severity of moderate to severe VMS” value (10 mg E4 vs placebo, week 4) was −0.1547 and the “Difference with placebo, LS adjusted mean, relative change in weekly severity of moderate to severe VMS” value (10 mg E4 vs placebo, week 4) was −0.06058. For the same molecule, the “Difference with placebo, LS adjusted mean, absolute change in weekly severity of moderate to severe VMS” value (10 mg E4 vs placebo, week 12) was −0.03512, the “Difference with placebo, LS adjusted mean, relative change in weekly severity of moderate to severe VMS” value (10 mg E4 vs placebo, week 12) was −0.006415 and the “LS adjusted mean change from baseline in weekly severity of moderate to severe VMS” value (15 mg E4, week 4) was −0.5888. For the same molecule, the “LS adjusted mean relative change” value (15 mg E4, week 4) was −0.2427, the “LS adjusted mean relative change” value (15 mg E4, week 12) was −0.4375 and the “Mean change from baseline in weekly severity of moderate to severe VMS” value (15 mg E4 QD per os, week 1) was −0.072. For the same molecule, the “Relative change (% from baseline)” value (15 mg E4 QD per os, week 1) was −3%, the “Mean change from baseline in weekly severity of moderate to severe VMS” value (15 mg E4 QD per os, week 2) was −0.2853 and the “Relative change (% from baseline)” value (15 mg E4 QD per os, week 2) was −12%. For the same molecule, the “Mean change from baseline in weekly severity of moderate to severe VMS” value (15 mg E4 QD per os, week 3) was −0.4842, the “Relative change (% from baseline)” value (15 mg E4 QD per os, week 3) was −20% and the “Mean change from baseline in weekly severity of moderate to severe VMS” value (15 mg E4 QD per os, week 4) was −0.5897. The “Relative change (% from baseline)” value (15 mg E4 QD per os, week 4) was −24%, the “Mean change from baseline in weekly severity of moderate to severe VMS” value (15 mg E4 QD per os, week 5) was −0.7432 and the “Relative change (% from baseline)” value (15 mg E4 QD per os, week 5) was −31%. For the same molecule, the “Mean change from baseline in weekly severity of moderate to severe VMS” value (15 mg E4 QD per os, week 6) was −0.7035, the “Relative change (% from baseline)” value (15 mg E4 QD per os, week 6) was −30% and the “Mean change from baseline in weekly severity of moderate to severe VMS” value (15 mg E4 QD per os, week 7) was −0.8112. For the same molecule, the “Relative change (% from baseline)” value (15 mg E4 QD per os, week 7) was −34%, the “Mean change from baseline in weekly severity of moderate to severe VMS” value (15 mg E4 QD per os, week 8) was −0.8854 and the “Relative change (% from baseline)” value (15 mg E4 QD per os, week 8) was −37%. For the same molecule, the “Mean change from baseline in weekly severity of moderate to severe VMS” value (15 mg E4 QD per os, week 9) was −0.9092, the “Relative change (% from baseline)” value (15 mg E4 QD per os, week 9) was −38% and the “Mean change from baseline in weekly severity of moderate to severe VMS” value (15 mg E4 QD per os, week 10) was −0.9628. The “Relative change (% from baseline)” value (15 mg E4 QD per os, week 10) was −40%, the “Mean change from baseline in weekly severity of moderate to severe VMS” value (15 mg E4 QD per os, week 11) was −1.0123 and the “Relative change (% from baseline)” value (15 mg E4 QD per os, week 11) was −42%. For the same molecule, the “Mean change from baseline in weekly severity of moderate to severe VMS” value (15 mg E4 QD per os, week 12) was −1.0425, the “Relative change (% from baseline)” value (15 mg E4 QD per os, week 12) was −44% and the “Difference with placebo, LS adjusted mean, absolute change in weekly severity of moderate to severe VMS” value (15 mg E4 vs placebo, week 4) was −0.261. For the same molecule, the “Difference with placebo, LS adjusted mean, relative change in weekly severity of moderate to severe VMS” value (15 mg E4 vs placebo, week 4) was −0.1017, the “Difference with placebo, LS adjusted mean, absolute change in weekly severity of moderate to severe VMS” value (15 mg E4 vs placebo, week 12) was −0.3838 and the “Difference with placebo, LS adjusted mean, relative change in weekly severity of moderate to severe VMS” value (15 mg E4 vs placebo, week 12) was −0.1577. For the same molecule, the “Reduction in the severity of moderate to severe VMS when compared to baseline” value (15 mg daily dose) was “over 40%”.
